Test results taken from patent US9079974B2, “GH-RH analogs with potent agonistic effects” (The University of Miami, priority 2011, dated 2015).
Square brackets hold non-standard residues; d marks the D form. Peptide text beside a SMILES is read from it. * marks the point of attachment. Phe(F5) = N[C@@H](Cc1c(F)c(F)c(F)c(F)c1F)C(=O)O; Desaminotyrosyl = O=C(CCc1ccc(O)cc1)*; NMeY = CN[C@@H](Cc1ccc(O)cc1)C(=O)O; Agmatine = N=C(N)NCCCCN*; Nle = CCCC[C@H](N)C(=O)O; Orn = NCCC[C@H](N)C(=O)O; Abu = CC[C@H](N)C(=O)O; GABA = NCCCC(=O)O

What follows are compounds tested against T1, GHRH receptor (Homo sapiens, UniProt Q02643) (assay: GHRH receptor binding, 125I-labeled JV-1-42 ligand competition, human pituitary membrane homogenates (Table 7)). Conditions: 125I-labeled JV-1-42, human pituitary membranes.
T1 construct: Normal human pituitaries were purchased from the National Hormone and Peptide Program; tissue National Hormone and Peptide Program (A. F. Parlow); host or cells: normal human pituitary, membrane fraction
T1 sequence (Q02643 23-423): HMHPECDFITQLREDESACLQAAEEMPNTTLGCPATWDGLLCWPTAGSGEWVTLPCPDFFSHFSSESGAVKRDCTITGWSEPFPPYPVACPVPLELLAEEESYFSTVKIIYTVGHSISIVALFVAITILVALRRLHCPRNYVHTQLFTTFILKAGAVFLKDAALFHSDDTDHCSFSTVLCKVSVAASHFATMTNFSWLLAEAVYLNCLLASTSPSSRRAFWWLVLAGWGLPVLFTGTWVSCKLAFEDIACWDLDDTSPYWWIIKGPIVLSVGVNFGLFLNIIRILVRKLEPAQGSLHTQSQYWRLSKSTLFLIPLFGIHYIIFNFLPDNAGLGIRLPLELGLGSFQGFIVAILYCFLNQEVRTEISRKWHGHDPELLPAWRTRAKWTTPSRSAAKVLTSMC
Procedure: Preparation of human pituitary membrane fraction and receptor binding of GHRH agonists were performed as previously described, by using a sensitive in vitro ligand competition assay based on binding of ^125I-labeled JV-1-42 to human pituitary membrane homogenates. Normal human pituitaries were purchased from the National Hormone and Peptide Program (A. F. Parlow, Los Angeles, County Harbor-UCLA Medical Center, Torrance, Calif.).
Work on `CCCC[C@H](NC(=O)[C@@H](NC(=O)[C@H](CC(=O)O)NC(=O)[C@H](CCC(N)=O)NC(=O)[C@H](CC(C)C)NC(=O)[C@H](CC(C)C)NC(=O)[C@H](CCCN)NC(=O)[C@H](CCCNC(=N)N)NC(=O)[C@H](C)NC(=O)[C@H](CO)NC(=O)[C@H](CC(C)C)NC(=O)[C@H](CCC(N)=O)NC(=O)[C@H](CC)NC(=O)[C@H](CC(C)C)NC(=O)[C@@H](NC(=O)[C@H](CCCN)NC(=O)[C@H](CCCNC(=N)N)NC(=O)[C@H](Cc1ccc(O)cc1)NC(=O)[C@H](CO)NC(=O)[C@H](CC(N)=O)NC(=O)[C@@H](NC(=O)[C@H](Cc1c(F)c(F)c(F)c(F)c1F)NC(=O)[C@@H](NC(=O)[C@H](C)NC(=O)[C@H](CC(=O)O)NC(=O)[C@@H](C)NC(=O)[C@H](Cc1ccc(O)cc1)NC)[C@@H](C)CC)[C@@H](C)O)C(C)C)[C@@H](C)CC)C(=O)N[C@@H](CC(=O)O)C(=O)NCCCCNC(=N)N` [Peptide P-20359, [N—Me-Tyr^1, D-Ala^2, Fpa5^6, Orn^12, Abu^15, Orn^21, Nle^27, Asp^28, Agm^29]hGH-RH(1-29)] (H-[NMeY][dA]DAI[Phe(F5)]TNSYR[Orn]VL[Abu]QLSAR[Orn]LLQDI[Nle]D-Agmatine) yielded an IC50 of 3.05 nM. For `CCCC[C@H](NC(=O)[C@@H](NC(=O)[C@H](CC(=O)O)NC(=O)[C@H](CCC(N)=O)NC(=O)[C@H](CC(C)C)NC(=O)[C@H](CC(C)C)NC(=O)[C@H](CCCN)NC(=O)[C@H](CCCNC(=N)N)NC(=O)[C@H](C)NC(=O)[C@H](CO)NC(=O)[C@H](CC(C)C)NC(=O)[C@H](CCC(N)=O)NC(=O)[C@H](CC)NC(=O)[C@H](CC(C)C)NC(=O)[C@@H](NC(=O)[C@H](CCCN)NC(=O)[C@H](CCCNC(=N)N)NC(=O)[C@H](Cc1ccc(O)cc1)NC(=O)[C@H](CO)NC(=O)[C@H](CCC(N)=O)NC(=O)[C@@H](NC(=O)[C@H](Cc1ccccc1)NC(=O)[C@@H](NC(=O)[C@H](C)NC(=O)[C@H](CC(=O)O)NC(=O)[C@@H](C)NC(=O)[C@H](Cc1ccc(O)cc1)NC)[C@@H](C)CC)[C@@H](C)O)C(C)C)[C@@H](C)CC)C(=O)N[C@@H](CC(=O)O)C(=O)NCCCCNC(=N)N` [Peptide P-20361, [N—Me-Tyr^1, D-Ala^2, Gln^8, Orn^12, Abu^15, Orn^21, Nle^27, Asp^28, Agm^29]hGH-RH(1-29)] (H-[NMeY][dA]DAIFTQSYR[Orn]VL[Abu]QLSAR[Orn]LLQDI[Nle]D-Agmatine), the IC50 was 0.82 nM. `CCCC[C@H](NC(=O)[C@@H](NC(=O)[C@H](CC(=O)O)NC(=O)[C@H](CCC(N)=O)NC(=O)[C@H](CC(C)C)NC(=O)[C@H](CC(C)C)NC(=O)[C@H](CCCN)NC(=O)[C@H](CCCNC(=N)N)NC(=O)[C@H](C)NC(=O)[C@H](CO)NC(=O)[C@H](CC(C)C)NC(=O)[C@H](CCC(N)=O)NC(=O)[C@H](CC)NC(=O)[C@H](CC(C)C)NC(=O)[C@@H](NC(=O)[C@H](CCCN)NC(=O)[C@H](CCCNC(=N)N)NC(=O)[C@H](Cc1ccc(O)cc1)NC(=O)[C@H](CO)NC(=O)[C@H](CC(N)=O)NC(=O)[C@@H](NC(=O)[C@H](Cc1ccccc1)NC(=O)[C@@H](NC(=O)[C@H](C)NC(=O)[C@H](CC(=O)O)NC(=O)[C@@H](C)NC(=O)[C@H](Cc1ccc(O)cc1)NC)[C@@H](C)CC)[C@@H](C)O)C(C)C)[C@@H](C)CC)C(=O)N[C@@H](CC(=O)O)C(=O)NCCCCNC(=N)N` [Peptide P-20367, [N—Me-Tyr^1, D-Ala^2, Orn^12, Abu^15, Orn^21, Nle^27, Asp^28, Agm^29]hGH-RH(1-29)] (H-[NMeY][dA]DAIFTNSYR[Orn]VL[Abu]QLSAR[Orn]LLQDI[Nle]D-Agmatine) was tested, and the IC50 was 1.7 nM. `CCCC[C@H](NC(=O)[C@@H](NC(=O)[C@H](CC(=O)O)NC(=O)[C@H](CCC(N)=O)NC(=O)[C@H](CC(C)C)NC(=O)[C@H](CC(C)C)NC(=O)[C@H](CCCN)NC(=O)[C@H](CCCNC(=N)N)NC(=O)[C@H](C)NC(=O)[C@H](CO)NC(=O)[C@H](CC(C)C)NC(=O)[C@H](CCC(N)=O)NC(=O)[C@H](CC)NC(=O)[C@H](CC(C)C)NC(=O)[C@@H](NC(=O)[C@H](CCCN)NC(=O)[C@H](CCCNC(=N)N)NC(=O)[C@H](Cc1ccc(O)cc1)NC(=O)[C@H](CO)NC(=O)[C@H](CCC(N)=O)NC(=O)[C@@H](NC(=O)[C@H](Cc1ccccc1)NC(=O)[C@@H](NC(=O)[C@H](C)NC(=O)[C@H](CC(=O)O)NC(=O)[C@@H](C)NC(=O)CCc1ccc(O)cc1)[C@@H](C)CC)[C@@H](C)O)C(C)C)[C@@H](C)CC)C(=O)N[C@@H](CC(=O)O)C(=O)N[C@H](CCCNC(=N)N)C(=O)NC` [Peptide P-27401, [Dat^1, D-Ala^2, Gln^8, Orn^12, Abu^15, Orn^21, Nle^27, Asp^28, D-Arg^29]hGH-RH(1-29)NH—CH3] (Desaminotyrosyl-[dA]DAIFTQSYR[Orn]VL[Abu]QLSAR[Orn]LLQDI[Nle]D[dR]-NHMe) showed an IC50 of 2.74 nM. Work on `CCCC[C@H](NC(=O)[C@@H](NC(=O)[C@H](CC(=O)O)NC(=O)[C@H](CCC(N)=O)NC(=O)[C@H](CC(C)C)NC(=O)[C@H](CC(C)C)NC(=O)[C@H](CCCN)NC(=O)[C@H](CCCNC(=N)N)NC(=O)[C@H](C)NC(=O)[C@H](CO)NC(=O)[C@H](CC(C)C)NC(=O)[C@H](CCC(N)=O)NC(=O)[C@H](CC)NC(=O)[C@H](CC(C)C)NC(=O)[C@@H](NC(=O)[C@H](CCCN)NC(=O)[C@H](CCCNC(=N)N)NC(=O)[C@H](Cc1ccc(O)cc1)NC(=O)[C@H](CO)NC(=O)[C@H](CC(N)=O)NC(=O)[C@@H](NC(=O)[C@H](Cc1c(F)c(F)c(F)c(F)c1F)NC(=O)[C@@H](NC(=O)[C@H](C)NC(=O)[C@H](CC(=O)O)NC(=O)[C@@H](C)NC(=O)[C@H](Cc1ccc(O)cc1)NC)[C@@H](C)CC)[C@@H](C)O)C(C)C)[C@@H](C)CC)C(=O)N[C@@H](CO)C(=O)N[C@@H](CCCNC(=N)N)C(=O)NCCCC(=O)NC` [Peptide P-27414, [N—Me-Tyr^1, D-Ala^2, Fpa5^6, Orn^12, Abu^15, Orn^21, Nle^27, Gab^30]hGH-RH(1-30)NH—CH3] (H-[NMeY][dA]DAI[Phe(F5)]TNSYR[Orn]VL[Abu]QLSAR[Orn]LLQDI[Nle]SR[GABA]-NHMe) yielded an IC50 of 1.56 nM. Work on `CCCC[C@H](NC(=O)[C@@H](NC(=O)[C@H](CC(=O)O)NC(=O)[C@H](CCC(N)=O)NC(=O)[C@H](CC(C)C)NC(=O)[C@H](CC(C)C)NC(=O)[C@H](CCCN)NC(=O)[C@H](CCCNC(=N)N)NC(=O)[C@H](C)NC(=O)[C@H](CO)NC(=O)[C@H](CC(C)C)NC(=O)[C@H](CCC(N)=O)NC(=O)[C@H](CC)NC(=O)[C@H](CC(C)C)NC(=O)[C@@H](NC(=O)[C@H](CCCN)NC(=O)[C@H](CCCNC(=N)N)NC(=O)[C@H](Cc1ccc(O)cc1)NC(=O)[C@H](CO)NC(=O)[C@H](CCC(N)=O)NC(=O)[C@@H](NC(=O)[C@H](Cc1ccccc1)NC(=O)[C@@H](NC(=O)[C@H](C)NC(=O)[C@H](CC(=O)O)NC(=O)[C@@H](C)NC(=O)[C@H](Cc1ccc(O)cc1)NC)[C@@H](C)CC)[C@@H](C)O)C(C)C)[C@@H](C)CC)C(=O)N[C@@H](CC(=O)O)C(=O)N[C@@H](CCCNC(=N)N)C(=O)NCC` [Peptide P-28420, [N—Me-Tyr^1, D-Ala^2, Gln^8, Orn^12, Abu^15, Orn^21, Nle^27, Asp^28]hGH-RH(1-29)NH—CH2—CH3] (H-[NMeY][dA]DAIFTQSYR[Orn]VL[Abu]QLSAR[Orn]LLQDI[Nle]DR-NHEt) yielded an IC50 of 0.52 nM. Work on `CCCC[C@H](NC(=O)[C@@H](NC(=O)[C@H](CC(=O)O)NC(=O)[C@H](CCC(N)=O)NC(=O)[C@H](CC(C)C)NC(=O)[C@H](CC(C)C)NC(=O)[C@H](CCCN)NC(=O)[C@H](CCCNC(=N)N)NC(=O)[C@H](C)NC(=O)[C@H](CO)NC(=O)[C@H](CC(C)C)NC(=O)[C@H](CCC(N)=O)NC(=O)[C@H](CC)NC(=O)[C@H](CC(C)C)NC(=O)[C@@H](NC(=O)[C@H](CCCN)NC(=O)[C@H](CCCNC(=N)N)NC(=O)[C@H](Cc1ccc(O)cc1)NC(=O)[C@H](CO)NC(=O)[C@H](CC(N)=O)NC(=O)[C@@H](NC(=O)[C@H](Cc1ccccc1)NC(=O)[C@@H](NC(=O)[C@H](C)NC(=O)[C@H](CC(=O)O)NC(=O)[C@@H](C)NC(=O)[C@H](Cc1ccc(O)cc1)NC)[C@@H](C)CC)[C@@H](C)O)C(C)C)[C@@H](C)CC)C(=O)N[C@@H](CC(=O)O)C(=O)N[C@@H](CCCNC(=N)N)C(=O)NCC` [Peptide P-28421, [N—Me-Tyr^1, D-Ala^2, Orn^12, Abu^15, Orn^21, Nle^27, Asp^28]hGH-RH(1-29)NH—CH2—CH3] (H-[NMeY][dA]DAIFTNSYR[Orn]VL[Abu]QLSAR[Orn]LLQDI[Nle]DR-NHEt) yielded an IC50 of 1.47 nM. With `CCCC[C@H](NC(=O)[C@@H](NC(=O)[C@H](CC(=O)O)NC(=O)[C@H](CCC(N)=O)NC(=O)[C@H](CC(C)C)NC(=O)[C@H](CC(C)C)NC(=O)[C@H](CCCN)NC(=O)[C@H](CCCNC(=N)N)NC(=O)[C@H](C)NC(=O)[C@H](CO)NC(=O)[C@H](CC(C)C)NC(=O)[C@H](CCC(N)=O)NC(=O)[C@H](CC)NC(=O)[C@H](CC(C)C)NC(=O)[C@@H](NC(=O)[C@H](CCCN)NC(=O)[C@H](CCCNC(=N)N)NC(=O)[C@H](Cc1ccc(O)cc1)NC(=O)[C@H](CO)NC(=O)[C@H](CC(N)=O)NC(=O)[C@@H](NC(=O)[C@H](Cc1ccccc1)NC(=O)[C@@H](NC(=O)[C@H](C)NC(=O)[C@H](CC(=O)O)NC(=O)[C@@H](C)NC(=O)CCc1ccc(O)cc1)[C@@H](C)CC)[C@@H](C)O)C(C)C)[C@@H](C)CC)C(=O)N[C@@H](CO)C(=O)N[C@@H](CCCNC(=N)N)C(=O)N[C@@H](CCC(N)=O)C(=O)NCCCC(N)=O` [Peptide P-29702, [Dat^1, D-Ala^2, Orn^12, Abu^15, Orn^21, Nle^27, Gln-Gab^30]hGH-RH(1-30)NH2] (Desaminotyrosyl-[dA]DAIFTNSYR[Orn]VL[Abu]QLSAR[Orn]LLQDI[Nle]SRQ[GABA]-NH2) the IC50 was 0.86 nM.
